A short description of series [1]: Plasma clearance in iv dosed rat.
The nature of series [2]: Mean residence time in iv dosed rat. The series is classed as ADME, organism-based. The conditions noted are these: in vivo.
Series [3] has as its target Coagulation factor VII/tissue factor (Homo sapiens, UniProt P08709). Briefly: Binding affinity to factor7a/TF complex. The series is classed as protein-complex assay.
The nature of series [4]: Bioavailability in sc dosed rat. The series is classed as ADME, organism-based. The conditions noted are these: in vivo.

Molecules are shown by their SMILES.

Chain of Coagulation factor VII/tissue factor (P08709 61-212 limits assumed): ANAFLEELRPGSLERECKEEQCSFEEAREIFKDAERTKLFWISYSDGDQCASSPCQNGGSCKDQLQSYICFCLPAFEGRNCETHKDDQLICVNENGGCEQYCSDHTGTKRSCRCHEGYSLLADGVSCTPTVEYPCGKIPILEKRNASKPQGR
Chain of Coagulation factor VII/tissue factor (P08709 213-466 limits assumed): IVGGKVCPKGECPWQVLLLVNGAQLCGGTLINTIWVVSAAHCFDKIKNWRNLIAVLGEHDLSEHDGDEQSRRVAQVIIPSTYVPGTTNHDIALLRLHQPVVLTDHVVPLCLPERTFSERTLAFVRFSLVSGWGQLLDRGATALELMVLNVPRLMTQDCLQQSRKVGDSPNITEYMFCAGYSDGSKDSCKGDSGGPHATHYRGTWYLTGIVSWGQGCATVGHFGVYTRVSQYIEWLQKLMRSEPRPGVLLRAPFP
Chain of Coagulation factor VII/tissue factor (P13726 33-295 partner limits assumed): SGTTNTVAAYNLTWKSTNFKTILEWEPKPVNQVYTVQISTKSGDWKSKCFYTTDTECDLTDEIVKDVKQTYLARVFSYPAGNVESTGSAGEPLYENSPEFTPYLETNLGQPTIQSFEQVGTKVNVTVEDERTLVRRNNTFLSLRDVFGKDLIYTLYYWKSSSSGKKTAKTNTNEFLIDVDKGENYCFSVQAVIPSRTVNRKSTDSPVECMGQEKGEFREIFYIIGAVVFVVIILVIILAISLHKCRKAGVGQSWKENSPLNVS

In general, clearance refers to a measure of how efficiently the substance is removed, as volume per time. Read a low clearance as inefficient removal. By MRT is commonly meant a mean duration of stay, worked out from the concentration-time curve. Usually Ki stands for the equilibrium dissociation constant of an inhibitor or competing ligand from its target. As for `N=C(N)c1ccc2[nH]c(-c3cc(C(CC(=O)O)C(=O)O)cc(-c4cccc([N+](=O)[O-])c4)c3O)nc2c1` (centres undefined), the clearance in series [1] came out at 0.04 mL/min/kg. In addition, the MRT in series [2] was over 24 h. For the same compound, in series [3], the Ki amounted to 22 nM.

In series [1], `N=C(N)c1ccc2[nH]c(-c3cc(CC(CC(=O)O)C(=O)O)cc(-c4cc(F)ccc4O)c3O)nc2c1` (centres undefined) displayed a clearance of 2.6 mL/min/kg. This compound also registered an MRT in series [2] of under 1 h. This compound registered a Ki in series [3] of 4 nM.

`N=C(N)c1ccc2[nH]c(-c3cc(CC(=O)O)cc(-c4cc(F)ccc4O)c3O)nc2c1` showed a clearance in series [1] of 8.1 mL/min/kg. In addition, the MRT in series [2] was under 1 h. Besides, the Ki in series [3] worked out at 2 nM.

The term bioavailability denotes dose-corrected exposure relative to a reference, in per cent. The compound `N=C(N)c1ccc2[nH]c(-c3cc(C(CC(=O)O)C(=O)O)cc(-c4cc(F)ccc4O)c3O)nc2c1` (centres undefined) registered an MRT in series [2] of 9 h. Moreover, the bioavailability in series [4] is over 90%. In series [3], this compound yielded a Ki of 4 nM.

The compound `N=C(N)c1ccc2[nH]c(-c3cc(C(CC(=O)O)C(=O)O)cc(-c4cccc([N+](=O)[O-])c4)c3O)cc2c1` (centres undefined) yielded an MRT in series [2] of over 24 h. Besides, in series [3], the Ki is 1 nM.

The compound `N=C(N)c1ccc2nc(-c3cc(C(CCC(=O)O)C(=O)O)cc(-c4cccc([N+](=O)[O-])c4)c3O)[nH]c2c1` (centres undefined) had an MRT in series [2] of 5 h. For the same compound, in series [3], the Ki was determined as 17 nM.

On to `N=C(N)c1ccc2nc(-c3cc(CC(=O)O)cc(-c4cccc([N+](=O)[O-])c4)c3O)[nH]c2c1`, for which the MRT in series [2] is under 1 h. In addition, in series [3], the affinity corresponds to a Ki of 15 nM.

Compound `N=C(N)c1ccc2nc(-c3cc(CC(C(=O)O)C(=O)O)cc(-c4cccc([N+](=O)[O-])c4)c3O)[nH]c2c1` had an MRT in series [2] of under 1 h. The compound also had a Ki in series [3] of 21 nM.

The compound `N=C(N)c1ccc2nc(-c3cc(C(CC(=O)O)CC(=O)O)cc(-c4cccc([N+](=O)[O-])c4)c3O)[nH]c2c1` displayed a Ki in series [3] of 36 nM.

As for `N=C(N)c1ccc2[nH]c(-c3cc(C(CC(=O)O)CC(=O)O)cc(-c4cccc([N+](=O)[O-])c4)c3O)cc2c1`, the MRT in series [2] turned out to be 1.5 h. Further, the affinity in series [3] corresponds to a Ki of 13 nM.

For the compound `N=C(N)c1ccc2[nH]c(-c3cc(CC(=O)O)cc(-c4cccc([N+](=O)[O-])c4)c3O)cc2c1`, the MRT in series [2] was under 1 h.

Values taken from ChEMBL document CHEMBL1146964, “Factor VIIa inhibitors: improved pharmacokinetic parameters” (Bioorg Med Chem Lett, 2006).
